According to patent publication US11446233B2, “Serums for reducing lipid peroxidation” (L'OREAL, priority 2020, dated 2022):

Assay: Ingredient metering: LC-UV concentration of active ingredients on storage
Assay type: physicochemical
Details: for Concentration of ingredient in inventive formula, T1M 45° C / Concentration of ingredient in inventive formula, T1M TA: in Inventive Ex. 1, 1 month; for Concentration of ingredient in inventive formula, T1M TA / Concentration of ingredient in inventive formula, T2M TA: temperature ambient; for Concentration of ingredient in inventive formula, T2M 45° C / Concentration of ingredient in inventive formula, T2M TA: in Inventive Ex. 1, 2 months; for Concentration of ingredient in inventive formula, T0 M: in Inventive Ex. 1, month 0
Source text: The levels of Ascorbic Acid, Ferulic Acid, Salicylic Acid, and Silybum marianum Extract (Active Silybin) were metered.

Row | SMILES | Concentration of ingredient in inventive formula, T1M 45° C | Concentration of ingredient in inventive formula, T1M TA | Concentration of ingredient in inventive formula, T2M 45° C | Concentration of ingredient in inventive formula, T2M TA | Concentration of ingredient in inventive formula, T0 M
1 | O=C1O[C@H]([C@@H](O)CO)C(O)=C1O [Ascorbic Acid] | 14.72% | 15.04% | 14.00% | 15.60% | 15.2%
2 | COc1cc(/C=C/C(=O)O)ccc1O [Ferulic Acid] | 0.43% | 0.48% | 0.39% | 0.50% | 0.46%
3 | O=C(O)c1ccccc1O [Salicylic Acid] | 0.49% | 0.50% | 0.47% | 0.49% | –
